{"source": "paper PMC10587737", "about": "“Dracorhodin targeting CMPK2 attenuates inflammation: A novel approach to sepsis therapy” (Clinical and Translational Medicine, 2023)", "key": {"[1]": {"test_system": "cellular CMPK2 activity in BMDMs", "assay": "Effect on cellular CMPK2 activity (ADP-Glo on cell lysates)", "type": "cell-based, mouse", "method": "Primary BMDMs were generated by culturing mouse bone marrow cells in the presence of 20 ng/ml M-CSF conditioned medium for 7 days. BMDMs were seeded in 6-well plates overnight in FBS-free DMEM. After adhering to the wall, different concentrations of DP were added and treated for 12 hours. On day 2, after priming with ultrapure LPS (200 ng/ml) for 4 h, BMDMs (1 × 10^6 cells/ml) were further stimulated with ATP (4 mM) or Nigericin (10 μM) for 45 min. Cell lysates were collected for ADP-Glo™ Kinase Assay (Promega, Madison, WI, USA)."}, "CMPK2 lysine residues": {"target": "T1, CMPK2 lysine residues (Homo sapiens, UniProt Q5EBM0)", "T1 construct": "the N‐terminus was truncated by 22 amino acids; 6xHis (C); made in house; host or cells: FreeStyle 293-F cells (pTT5 vector)", "T1 sequence (Q5EBM0 22-449)": "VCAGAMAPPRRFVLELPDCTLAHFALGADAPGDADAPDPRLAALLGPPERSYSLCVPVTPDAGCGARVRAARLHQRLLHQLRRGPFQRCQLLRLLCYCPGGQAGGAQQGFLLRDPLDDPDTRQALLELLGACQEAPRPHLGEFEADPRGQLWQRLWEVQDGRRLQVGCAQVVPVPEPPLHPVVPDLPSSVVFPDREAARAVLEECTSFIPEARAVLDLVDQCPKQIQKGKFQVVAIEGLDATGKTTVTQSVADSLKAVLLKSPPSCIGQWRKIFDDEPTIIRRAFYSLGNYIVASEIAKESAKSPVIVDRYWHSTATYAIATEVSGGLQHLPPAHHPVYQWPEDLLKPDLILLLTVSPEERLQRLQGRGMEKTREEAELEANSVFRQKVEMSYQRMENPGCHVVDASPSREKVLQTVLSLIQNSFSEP", "assay": "Quantitative lysine reactivity profiling (dimethyl labelling)", "method": "The extent of DP intervention on lysine residues of CMPK2 conformational changes was visualized and the correlation between this effect and the inhibitory potency of the inhibitor was assessed. […] Finally, after the concentration of the active small molecule was fixed, the concentration of the target protein CMPK2 was tested for lysine labelling reactivity according to a gradient of 0.025, 0.05 and 0.1 mg/mL. The range of concentrations used to investigate the effect of small‐molecule ligands on CMPK2 activity was 0.1–150 μM. Each data point contains three biological replicates.\nStable isotope labeling reactions were performed in the active state of the target protein samples. In short, the sample was split into two identical portions. One portion was incubated with DP, and the other was incubated with DMSO vehicle for 30 min at 37℃. Then, mass-differentiated isotopic labeling was performed with heavy (30 mM CD2O, 5 mM NaBH3CN) and light (30 mM CH2O, 5 mM NaBH3CN) labeling reagents. Active isotopic labeling was allowed to proceed for the indicated time, and this experiment allowed incubation for 15 min at 25℃ in the dark. Add 5 M NH4AC and react for 10 min at room temperature to stop the labeling reaction. […] The digested peptide samples were collected by centrifugation, lyophilized, and stored at -80℃ for quantitative proteomic analysis."}, "[2]": {"test_system": "ASC oligomerization in BMDMs", "assay": "ASC oligomerization assay", "type": "cell-based, mouse", "conditions": "DP 12 h before or 1 h after LPS; ATP/Nigericin", "method": "BMDMs were seeded at 1×10^6 cells/ml in 6-well plates. After cell adherence, BMDMs were treated with different concentrations of DP. The following day, the medium was replaced, and the cells were primed with 200 ng/ml LPS for 4 h and then stimulated with Nigericin or ATP for 45 min. BMDMs were primed with 200 ng/ml LPS for 4 h. The cells were treated with DP for 1 h and then stimulated with Nigericin or ATP for 45 min. The supernatant was removed, the cells were rinsed in ice-cold PBS, and then, the cells were lysed with NP-40 for 30 min. Lysates were centrifuged at 6000×g for 10 min at 4°C. The pellets were washed twice in 200 μl of ice-cold PBS and resuspended in 200 μl of PBS. Then, 2 mM disuccinimidyl suberate (DSS) was added to the resuspended pellets, which were incubated at room temperature for 30 min with rotation. Samples were then centrifuged at 6000×g for 10 min at 4°C. The cross-linked pellets were resuspended in 40 μl of 2× loading buffer and then boiled and analyzed by immunoblotting."}, "[3]": {"test_system": "CMPK2 expression in BMDMs", "assay": "CMPK2 protein and mRNA expression in BMDMs", "type": "cell-based, mouse", "method": "Cells were lysed in NP-40 buffer containing a protease inhibitor cocktail (Roche, 11836153001) and a phosphatase inhibitor cocktail (Sigma-Aldrich, P5726). Protein concentrations were quantified using a BCA Protein Assay Kit (Beyotime, 5000T P0011). Equal amounts of protein were separated by SDS-PAGE and transferred onto nitrocellulose membranes. The membranes were then incubated with antibodies against CMPK2, NLRP3, ASC, pro-caspase-1, pro-IL-1β, GAPDH, caspase-1 and IL-1β, followed by incubation with the appropriate secondary HRP-conjugated antibodies and development with ECL."}, "[4]": {"target": "T2, purified CMPK2 protein (WT) (Homo sapiens, UniProt Q5EBM0)", "T2 construct": "the N‐terminus was truncated by 22 amino acids; 6xHis (C); made in house; host or cells: FreeStyle 293-F cells (pTT5 vector)", "T2 sequence (Q5EBM0 22-449)": "T1 sequence (Q5EBM0 22-449)", "assay": "Microscale thermophoresis (MST) binding to CMPK2", "method": "The MST assay is an emerging technique used to quantitatively elucidate binding. The binding parameter between CMPK2 and DP was measured using MST on a Monolith NT.115 system (Germany). CMPK2 was fluorescently labeled with the Monolith NT Protein Labeling Kit RED (L018, NanoTemper Technologies GmbH, Munich, Germany) according to the manufacturer's instructions. The Monolith NT.115 system was used with Monolith NT.115 standard capillaries (M0-[…]). MST assay buffer was used to dilute the labeled CMPK2 to 2 μM. Sixteen dilutions (1:1) of the ligand were prepared using the same buffer, starting at a concentration of 10 μM. An equivalent volume of the labeled CMPK2 was added to each of the dilutions and loaded into Monolith NT.115 standard treated capillaries (Nano Temper Technologies), which were used to measure the MST trace at a temperature of 27°C. The experimental parameters were adjusted to medium MST power and 40% LED/excitation power. The binding and dissociation constants (Kd) were evaluated and calculated using M0-Affinity analysis software version 2.1.3 (Nano Temper Technologies) for the ligand."}}, "data": [{"smiles": "COc1c2ccc(-c3ccccc3)oc-2cc(=O)c1C", "note": "[compound 73, Dracohodin perochlorate]", "values": [{"measurement": "cellular CMPK2 inhibition", "setting": "[1]; DP 10 μM", "value": "enhanced significantly"}, {"measurement": "cellular CMPK2 enzyme activity", "setting": "[1]; DP 2.5 and 5 μM", "value": "tendency to inhibit"}, {"measurement": "isotope-labelling ratios of lysine residues", "setting": "CMPK2 lysine residues; residues K245, K249, K282, K320, K324, K293, K265, K251, K277 and K368", "value": "lower than 0.5"}, {"measurement": "isotope-labelling ratios of lysine residues", "setting": "CMPK2 lysine residues; residues K393, K433 and K409, DP–CMPK2 co-incubation", "value": "approximately 1"}, {"measurement": "ASC oligomerization", "setting": "[2]", "value": "blocked"}, {"measurement": "mRNA expression level of Cmpk2", "setting": "[3]", "value": "decreased"}, {"measurement": "protein expression of CMPK2", "setting": "[3]; DP 2.5, 5, 10 μM", "value": "dose‐dependently inhibited"}, {"measurement": "Kd", "setting": "[4]", "value": "350 ± 34.9", "unit": "nM"}]}]}
